Reference: patent publication US9079901B2, “Fused heterocyclic compounds as ion channel modulators” (Gilead Sciences, Inc., priority 2010, dated 2015)

Molecular target: wild-type human cardiac sodium channel, hNav1.5 (late sodium current) in HEK293 cells (Homo sapiens, UniProt Q14524)
Assay: Late INa screening assay (automated whole-cell patch clamp, PatchXpress)
Format: cell-based
Settings: late INa generated with 10 μM Tefluthrin (or 50 nM ATX II), HEK293 hNav1.5; for inhibition at 1 µM: HEK293, compound at 1 μM, read-out: Late INa 1 μM (percent block of late INa)
Description: The late sodium current (Late INa) and peak sodium current (Peak INa) assays are performed on an automated electrophysiology platform, PatchXpress 7000A (MDS Analytical Technologies, Sunnyvale, Calif.), which uses the whole cell patch clamp technique to measure currents through the cell membrane of up to 16 cells at a time. The assay uses an HEK293 (human embryonic kidney) cell line heterologously expressing the wild-type human cardiac sodium channel, hNav1.5, purchased from Millipore (Billerica, Mass.). No beta subunits were coexpressed with the Na channel alpha subunit. Cells are maintained with standard tissue culture procedures and stable channel expression is maintained with 400 μg/ml Geneticin in the culture medium. Cells isolated for use on PatchXpress are incubated for 5 minutes in Versene 1× and then for 2 minutes in 0.0125% Trypsin-EDTA (both at 37° C.) to ensure that 80-90% of the cells are single and not part of a cell cluster. Experiments are carried out at 24-27° C.
For both the Late INa and Peak INa assays, series resistance compensation is set to 50% and whole-cell compensation is performed automatically. Currents are low-pass filtered at 10 kHz and digitized at 31.25 kHz. Currents through open sodium channels are automatically recorded and stored in the DataXpress2 database (MDS Analytical Technologies, Sunnyvale, Calif.). Analysis is performed using DataXpress2 analysis software and data are compiled in Excel.
Compound stocks are routinely made in glass vials to 10 mM in dimethyl sulfoxide (DMSO). In some cases, when compounds are not soluble in DMSO, they are made in 100% ethanol. Stocks are sonicated as necessary. The extracellular solution for screening Late INa is composed of: 140 mM NaCl, 4 mM KCl, 1.8 mM CaCl2, 0.75 mM MgCl2, and 5 mM HEPES with pH adjusted to 7.4 using NaOH. The extracellular solution for screening Peak INa is composed of: 20 mM NaCl, 120 mM N-methyl-D glucamine, 4 mM KCl, 1.8 mM CaCl2, 0.75 mM MgCl2, and 5 mM HEPES with pH adjusted to 7.4 using HCl. The intracellular solution used to perfuse the inside of the cells for both the Late INa and Peak INa assays contains: 120 mM CsF, 20 mM CsCl, 5 mM EGTA, 5 mM HEPES and pH adjusted to 7.4 with CsOH. Compounds are diluted in extracellular solution to 10 μM in glass vials and then transferred to glass well plates before robotic addition to the cells. The 0Na extracellular solution used at the end of each experiment for the Late INa and Peak INa assays to measure baseline current contains: 140 mM N-methyl-D-glucamine; 4 mM KCl; 1.8 mM CaCl2; 0.75 mM MgCl2; 5 mM HEPES and pH was adjusted to 7.4 with HCl.
For the Late INa assay, sodium channels are activated every 10 seconds (0.1 Hz) by depolarizing the cell membrane to −20 mV for 250 milliseconds (ms) from a holding potential of −120 mV. In response to a −20 mV voltage step, typical Nav1.5 sodium currents activate rapidly to a peak negative current and then inactivate nearly completely within 3-4 ms.
All compounds are tested to determine their activity in blocking the late sodium current. Late INa current is generated by adding 10 μM Tefluthrin (pyrethroid) to the extracellular solution while recording Na currents. For some experiments, 50 nM ATX II (sea anemone toxin), another late INa activator, was used to generate the late component. Both activators generate late components that are large enough that block of the late component by compounds can be measured easily. For the purposes of the screening, late INa is defined as the mean current between 225 ms and 250 ms after stepping to −20 mV to activate Na channels. After establishing the whole cell recording configuration, late INa activators are added to each well 4 times over a 16-17 minute period so that the late component of the Na current reaches a stable value. Compounds are then added (typically at 10 μM), in the presence of late INa activator, with 3 additions over the course of 7 or 8 minutes. […]

Chain of wild-type human cardiac sodium channel, hNav1.5 (late sodium current) in HEK293 cells (Q14524 whole entry): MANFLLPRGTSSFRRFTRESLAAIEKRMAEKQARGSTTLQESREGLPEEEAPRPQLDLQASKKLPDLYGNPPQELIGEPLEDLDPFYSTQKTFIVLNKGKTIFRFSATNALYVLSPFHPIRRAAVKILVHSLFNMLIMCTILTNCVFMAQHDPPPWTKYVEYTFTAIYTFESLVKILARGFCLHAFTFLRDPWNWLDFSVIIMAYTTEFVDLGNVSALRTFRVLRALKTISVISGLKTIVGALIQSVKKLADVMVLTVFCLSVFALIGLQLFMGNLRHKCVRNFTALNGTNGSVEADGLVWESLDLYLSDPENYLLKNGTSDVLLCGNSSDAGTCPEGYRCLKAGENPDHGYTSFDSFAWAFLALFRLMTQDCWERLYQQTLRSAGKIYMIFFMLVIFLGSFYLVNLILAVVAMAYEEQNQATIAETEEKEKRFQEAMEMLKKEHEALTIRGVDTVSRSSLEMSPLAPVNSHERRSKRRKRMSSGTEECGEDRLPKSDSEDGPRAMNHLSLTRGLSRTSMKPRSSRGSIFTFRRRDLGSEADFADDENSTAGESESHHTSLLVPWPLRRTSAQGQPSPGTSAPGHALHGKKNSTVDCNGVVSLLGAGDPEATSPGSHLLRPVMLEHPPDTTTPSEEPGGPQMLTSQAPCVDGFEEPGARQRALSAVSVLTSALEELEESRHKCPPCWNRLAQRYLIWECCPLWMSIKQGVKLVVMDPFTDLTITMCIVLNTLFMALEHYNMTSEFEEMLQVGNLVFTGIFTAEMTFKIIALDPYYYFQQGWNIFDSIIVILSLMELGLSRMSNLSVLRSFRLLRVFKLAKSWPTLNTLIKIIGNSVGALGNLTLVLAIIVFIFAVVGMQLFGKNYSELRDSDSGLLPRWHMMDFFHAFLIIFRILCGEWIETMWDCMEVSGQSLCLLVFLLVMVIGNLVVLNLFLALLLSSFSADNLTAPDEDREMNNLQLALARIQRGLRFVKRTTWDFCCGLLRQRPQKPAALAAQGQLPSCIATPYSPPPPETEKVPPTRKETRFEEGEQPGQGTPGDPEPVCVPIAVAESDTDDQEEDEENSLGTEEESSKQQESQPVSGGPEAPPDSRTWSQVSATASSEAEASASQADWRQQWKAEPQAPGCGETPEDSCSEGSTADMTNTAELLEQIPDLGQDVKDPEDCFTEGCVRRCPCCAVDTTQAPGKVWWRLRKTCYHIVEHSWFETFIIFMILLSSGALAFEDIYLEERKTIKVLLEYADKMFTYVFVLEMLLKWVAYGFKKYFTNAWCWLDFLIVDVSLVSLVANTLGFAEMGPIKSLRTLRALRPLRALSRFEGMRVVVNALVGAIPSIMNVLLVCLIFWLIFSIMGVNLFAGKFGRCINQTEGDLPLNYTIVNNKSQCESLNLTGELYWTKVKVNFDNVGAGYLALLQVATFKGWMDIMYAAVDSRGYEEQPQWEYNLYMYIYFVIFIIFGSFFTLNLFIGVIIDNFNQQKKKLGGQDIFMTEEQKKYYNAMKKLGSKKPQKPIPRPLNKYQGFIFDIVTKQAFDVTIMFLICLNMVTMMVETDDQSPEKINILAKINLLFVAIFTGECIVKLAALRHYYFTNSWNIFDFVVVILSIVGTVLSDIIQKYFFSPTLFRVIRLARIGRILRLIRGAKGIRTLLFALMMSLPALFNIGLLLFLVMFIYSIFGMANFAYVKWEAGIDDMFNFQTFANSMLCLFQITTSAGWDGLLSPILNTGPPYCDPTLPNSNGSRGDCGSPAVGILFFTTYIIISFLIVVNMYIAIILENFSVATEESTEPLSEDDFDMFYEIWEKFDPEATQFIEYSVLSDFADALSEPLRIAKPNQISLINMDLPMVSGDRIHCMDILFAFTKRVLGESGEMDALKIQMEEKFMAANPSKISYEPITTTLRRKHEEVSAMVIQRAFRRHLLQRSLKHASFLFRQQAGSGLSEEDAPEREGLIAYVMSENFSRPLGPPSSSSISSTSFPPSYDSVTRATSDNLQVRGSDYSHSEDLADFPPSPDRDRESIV

Q: Which inhibition at 1 µM does the source give for `CCc1noc(Cn2nc3ccc(-c4ccc(C(F)(F)F)cc4)cn3c2=O)n1` [compound 167, 2-((3-ethyl-1,2,4-oxadiazol-5-yl)methyl)-6-(4-(trifluoromethyl)phenyl)-[1,2,4]triazolo[4,3-a]pyridin-3(2H)-one] here?
A: 26.2%

Q: How did the inhibition at 1 µM turn out when `COc1cccc(CCn2nc3ccc(-c4ccc(OC(F)(F)F)cc4)cn3c2=O)n1` [compound 103, 2-(2-(6-methoxypyridin-2-yl)ethyl)-6-(4-(trifluoromethoxy)phenyl)-[1,2,4]triazolo[4,3-a]pyridin-3(2H)-one] was run?
A: 49.7%

Q: How did the inhibition at 1 µM turn out when `Cc1noc(Cn2nc3ccc(-c4ccc(C(=O)c5ccccc5)cc4)cn3c2=O)n1` [compound 131, 6-(4-benzoylphenyl)-2-((3-methyl-1,2,4-oxadiazol-5-yl)methyl)-[1,2,4]triazolo[4,3-a]pyridin-3(2H)-one] was run?
A: 34.7%

Q: With `O=c1[nH]nc2ccc(-c3ccc(OC(F)(F)F)cc3)cn12` [compound 200, 6-(4-(trifluoromethoxy)phenyl)-[1,2,4]triazolo[4,3-a]pyridin-3(2H)-one] as the compound, how does the inhibition at 1 µM read?
A: 26.5%

Q: Which inhibition at 1 µM does the source give for `O=c1n(Cc2cc(-c3ccccn3)on2)nc2ccc(-c3ccc(OC(F)(F)F)cc3)cn12` [compound 144, 2-((5-(pyridin-2-yl)isoxazol-3-yl)methyl)-6-(4-(trifluoromethoxy)phenyl)-[1,2,4]triazolo[4,3-a]pyridin-3(2H)-one] here?
A: 19.2%

Q: Which inhibition at 1 µM does the source give for `Cc1nc(Cn2nc3ccc(-c4ccc(C(F)(F)F)cc4)cn3c2=O)no1` [compound 148, 2-((5-methyl-1,2,4-oxadiazol-3-yl)methyl)-6-(4-(trifluoromethyl)phenyl)-[1,2,4]triazolo[4,3-a]pyridin-3(2H)-one] here?
A: 11.6%

Q: How did the inhibition at 1 µM turn out when `O=c1n(Cc2ccc3nonc3c2)nc2ccc(-c3ccc(OC(F)(F)F)cc3)cn12` [compound 10, 2-(benzo[c][1,2,5]oxadiazol-5-ylmethyl)-6-(4-(trifluoromethoxy)phenyl)-[1,2,4]triazolo[4,3-a]pyridin-3(2H)-one] was run?
A: 16.9%

Q: Which inhibition at 1 µM does the source give for `CCc1noc(Cn2nc3ccc(-c4ccc(OC(F)(F)F)cc4)cn3c2=O)n1` [compound 166, 2-((3-ethyl-1,2,4-oxadiazol-5-yl)methyl)-6-(4-(trifluoromethoxy)phenyl)-[1,2,4]triazolo[4,3-a]pyridin-3(2H)-one] here?
A: 24.4%

Q: With `O=c1n(CCOc2ncccc2C(F)(F)F)nc2ccc(-c3ccc(OC(F)(F)F)cc3)cn12` [compound 47, 6-(4-(trifluoromethoxy)phenyl)-2-(2-(3-(trifluoromethyl)pyridin-2-yloxy)ethyl)-[1,2,4]triazolo[4,3-a]pyridin-3(2H)-one] as the compound, how does the inhibition at 1 µM read?
A: 43.6%

Q: With `O=c1n(Cc2noc(COc3ccccn3)n2)nc2ccc(-c3ccc(OC(F)(F)F)cc3)cn12` [compound 175, 2-((5-((pyridin-2-yloxy)methyl)-1,2,4-oxadiazol-3-yl)methyl)-6-(4-(trifluoromethoxy)phenyl)-[1,2,4]triazolo[4,3-a]pyridin-3(2H)-one] as the compound, how does the inhibition at 1 µM read?
A: 28.9%

Q: With `Cc1cnc(OCCn2nc3ccc(-c4ccc(OC(F)(F)F)cc4)cn3c2=O)nc1` [compound 82, 2-(2-(5-methylpyrimidin-2-yloxy)ethyl)-6-(4-(trifluoromethoxy)phenyl)-[1,2,4]triazolo[4,3-a]pyridin-3(2H)-one] as the compound, how does the inhibition at 1 µM read?
A: 32.5%

Q: Which “Late INa 1 μM (percent block of late INa)” value (compound at 1 μM) does the source give for `O=c1n(CCCOc2ccccc2C(F)(F)F)nc2ccc(-c3ccc(OC(F)(F)F)cc3)cn12` [compound 71, 6-(4-(trifluoromethoxy)phenyl)-2-(3-(2-(trifluoromethyl)phenoxy)propyl)-[1,2,4]triazolo[4,3-a]pyridin-3(2H)-one] here?
A: 26.0692%

Q: `CSc1ccnc(OCCn2nc3ccc(-c4ccc(OC(F)(F)F)cc4)cn3c2=O)n1` [compound 159, 2-(2-(4-(methylthio)pyrimidin-2-yloxy)ethyl)-6-(4-(trifluoromethoxy)phenyl)-[1,2,4]triazolo[4,3-a]pyridin-3(2H)-one] was tested. Which inhibition at 1 µM did it give?
A: 49.6%

Q: How did the inhibition at 1 µM turn out when `O=c1n(Cc2cccc(C(F)(F)F)n2)nc2ccc(-c3ccc(OC(F)(F)F)cc3)cn12` [compound 62, 6-(4-(trifluoromethoxy)phenyl)-2-((6-(trifluoromethyl)pyridin-2-yl)methyl)-[1,2,4]triazolo[4,3-a]pyridin-3(2H)-one] was run?
A: 21.6%

Q: Which inhibition at 1 µM does the source give for `CN(C)c1nc(OCCn2nc3ccc(-c4ccc(OC(F)(F)F)cc4)cn3c2=O)ncc1F` [compound 126, 2-(2-(4-(dimethylamino)-5-fluoropyrimidin-2-yloxy)ethyl)-6-(4-(trifluoromethoxy)phenyl)-[1,2,4]triazolo[4,3-a]pyridin-3(2H)-one] here?
A: 32.6%

Q: Which inhibition at 1 µM does the source give for `COCc1noc(Cn2nc3ccc(-c4ccc(C(F)(F)F)cc4)cn3c2=O)n1` [compound 168, 2-((3-(methoxymethyl)-1,2,4-oxadiazol-5-yl)methyl)-6-(4-(trifluoromethyl)phenyl)-[1,2,4]triazolo[4,3-a]pyridin-3(2H)-one] here?
A: 19.1%

Q: Which inhibition at 1 µM does the source give for `O=c1n(Cc2ncc(C3CC3)o2)nc2ccc(-c3ccc(OC(F)(F)F)cc3)cn12` [compound 199, 2-((5-cyclopropyloxazol-2-yl)methyl)-6-(4-(trifluoromethoxy)phenyl)-[1,2,4]triazolo[4,3-a]pyridin-3(2H)-one] here?
A: 22.5%

Q: How did the inhibition at 1 µM turn out when `O=c1n(CCN2CCC(F)(F)CC2)nc2ccc(-c3ccc(OC(F)(F)F)cc3)cn12` [compound 50, 2-(2-(4,4-difluoropiperidin-1-yl)ethyl)-6-(4-(trifluoromethoxy)phenyl)-[1,2,4]triazolo[4,3-a]pyridin-3(2H)-one] was run?
A: 14.2%

Q: Which inhibition at 1 µM does the source give for `Cc1nc(Cn2nc3ccc(-c4ccc(C(F)(F)F)cc4)cn3c2=O)oc1C` [compound 173, 2-((4,5-dimethyloxazol-2-yl)methyl)-6-(4-(trifluoromethyl)phenyl)-[1,2,4]triazolo[4,3-a]pyridin-3(2H)-one] here?
A: 22.2%

Q: How did the inhibition at 1 µM turn out when `O=c1n(CCOc2ncccn2)nc2ccc(-c3ccc(Oc4ccc(F)cc4)cc3)cn12` [compound 122, 6-(4-(4-fluorophenoxy)phenyl)-2-(2-(pyrimidin-2-yloxy)ethyl)-[1,2,4]triazolo[4,3-a]pyridin-3(2H)-one] was run?
A: 58.5%

Q: `O=c1n(C/C=C/c2ccccc2)nc2ccc(-c3ccc(OC(F)(F)F)cc3)cn12` [compound 151, 2-cinnamyl-6-(4-(trifluoromethoxy)phenyl)-[1,2,4]triazolo[4,3-a]pyridin-3(2H)-one] was tested. Which inhibition at 1 µM did it give?
A: 16.5%

Q: For `Cc1noc(Cn2nc3ccc(-c4ccc(OC(F)(F)F)c(F)c4)cn3c2=O)n1` [compound 155, 6-(3-fluoro-4-(trifluoromethoxy)phenyl)-2-((3-methyl-1,2,4-oxadiazol-5-yl)methyl)-[1,2,4]triazolo[4,3-a]pyridin-3(2H)-one], which inhibition at 1 µM is on record?
A: 18.8%

Q: For `O=C1c2ccccc2C(=O)N1Cc1nc(Cn2nc3ccc(-c4ccc(OC(F)(F)F)cc4)cn3c2=O)no1` [compound 136, 2-((3-((3-oxo-6-(4-(trifluoromethoxy)phenyl)-[1,2,4]triazolo[4,3-a]pyridin-2(3H)-yl)methyl)-1,2,4-oxadiazol-5-yl)methyl)isoindoline-1,3-dione], which inhibition at 1 µM is on record?
A: 25.2%

Q: With `COc1cc(Cl)c(Cl)cc1OCC(O)Cn1nc2ccc(-c3ccc(C(F)(F)F)cc3)cn2c1=O` (stereo not drawn) [compound 198, 2-(3-(4,5-dichloro-2-methoxyphenoxy)-2-hydroxypropyl)-6-(4-(trifluoromethyl)phenyl)-[1,2,4]triazolo[4,3-a]pyridin-3(2H)-one] as the compound, how does the inhibition at 1 µM read?
A: 14.8%
